Test results as given in US6566355B1 (Hoffmann-La Roche Inc., priority 1991, dated 2003).
Where a name gives a salt, the structure may show the parent alone. Read-outs that look alike come from different tables or passages of the source.

How the values were obtained:
β-lactamase = molecular target: T1, β-lactamase (Citrobacter freundii, UniProt P05193); assay: biochemical
T1 construct: Various β-lactamases can be isolated from penicillin- or cephalosporin-resistant bacterial strains such as; endogenous in cells; host or cells: Citrobacter freundii 1203 (enzyme purified from the crude cell extract, after ampicillin induction when necessary)
T1 sequence (P05193 21-381): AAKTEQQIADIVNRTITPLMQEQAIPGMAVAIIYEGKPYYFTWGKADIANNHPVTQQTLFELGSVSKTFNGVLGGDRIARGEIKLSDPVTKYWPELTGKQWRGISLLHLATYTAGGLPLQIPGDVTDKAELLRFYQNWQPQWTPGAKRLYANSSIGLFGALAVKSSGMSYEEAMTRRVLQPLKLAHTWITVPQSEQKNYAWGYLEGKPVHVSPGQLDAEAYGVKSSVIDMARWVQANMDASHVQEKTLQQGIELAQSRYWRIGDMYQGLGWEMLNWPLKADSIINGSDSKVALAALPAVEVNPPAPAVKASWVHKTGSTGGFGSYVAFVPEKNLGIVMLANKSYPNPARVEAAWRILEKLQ
Method: A. Isolation of the β-lactamases
Various β-lactamases can be isolated from penicillin- or cephalosporin-resistant bacterial strains such as Klebsiella pneumoniae NCTC 418, Proteus vulgaris 1028, Bacillus licheniformis 749/C, Escherichia coli SN01 and Citrobacter freundii 1203. For this purpose, the corresponding strains are cultivated in Tryptic Soy Broth (Difco) and harvested by centrifugation in the last logarithmic growth phase (when necessary 50-100 mg/l of ampicillin are added to the medium towards the end of the log-phase in order to induce the β-lactamase). The thus-obtained bacterial mass is treated with 20 mM Tris-HCl buffer (pH 7.0); the cells are broken open with a French press while cooling. The mixture is centrifuged (20,000 r/min.) for 20-30 minutes and a clear crude extract is obtained.
B. Determination of the β-lactamase activity
The determination of the activity of the isolated β-lactamases can be carried out according to the method of O'Callaghan, C. H. et al. [Antimicr. Ag. Chemother., 1, 283-288 (1972)] using the chromogenic cephalosporin nitrocefin (87/312 from Glaxo). The requisite test batch contains per ml of water: 50 mM phosphate buffer (pH 7.0), 0.1 mM nitrocefin and sufficient enzyme (β-lactamase) to achieve a ΔA/min. of about 0.1. The cleavage of the substrate, which is accompanied by a change in colour, is effected at 37° C. and is followed quantitatively at 482 nm using a spectral photometer.
C. Determination of the β-lactamase-inhibiting activity of the compounds of general formula I
The above-described cleavage of the chromogenic substrate by β-lactamases (test B.) can be inhibited by the addition of compounds of general formula I (inhibitors). […] As a measurement for the affinity of the particular tested inhibitor to the β-lactamase, which is a measurement of the strength of the inhibitor, there serves that concentration which inhibits by 50% (IC 50 in nM) the cleavage of the substrate (nitrocefin) effected under the above test conditions (test B) in the absence of an inhibitor. […] The determination of the IC50 was effected by means of a graph.
(Test organism: Citrobacter freundii)

Citrobacter freundii = assay: MIC in vitro of a 1:4 combination of ceftriaxone with a compound of formula I (test D); format: cell-based; conditions: 1:4 combination of ceftriaxone with the compound
Method: D. Determination of the β-lactamase-inhibiting activity by combination of a compound of general formula I with ceftriaxone
The minimum inhibitory concentration in vitro (MIC in μg/ml) of a 1:4 combination of ceftriaxone with a compound of formula I against Citrobacter freundii is measured and compiled in Table 2 hereinafter.

[1] = IC 50 nM, isolated β-lactamase of Citrobacter freundii, substrate nitrocefin 0.1 mM, 15 minutes pre-incubation with inhibitor, 37° C., pH 7.0
[2] = isolated β-lactamase of Citrobacter freundii, substrate nitrocefin 0.1 mM, 15 minutes pre-incubation with inhibitor, 37° C., pH 7.0, read-out: IC 50 nM

Row | SMILES | IC50 (β-lactamase) | MIC (Citrobacter freundii) | IC50 (β-lactamase; [1]) | IC50 (β-lactamase; [2])
1 | Nc1cccc(NCC(=O)N2CC[C@@H]3[C@H]2C(=O)N3S(=O)(=O)O)c1 [5(i), (1S,5R)-2-[N-(m-Aminophenyl)glycyl] -7-oxo-2,6-diazabicyclo[3.2.0]heptane-6-sulphonic acid] | 115 nM | 2 µg/mL |  | 
2 | Cn1nnnc1SCC(=O)N1CC[C@@H]2[C@H]1C(=O)N2S(=O)(=O)[O-].[Na+] [5(j), (1S,5R)-2-[[(1-Methyl-1H-tetrazol-5-yl)-thio]acetyl]-7-oxo-2,6-diazabicyclo[3.2.0]heptane-6-sulphonic acid sodium salt] |  | 0.5 µg/mL | 23 nM | 
3 | O=C(COn1nnc2ccccc21)N1CC[C@@H]2[C@H]1C(=O)N2S(=O)(=O)[O-].[Na+] [5(k), (1S,5R)-2-[[1H-Benzotriazol-1-yl)oxylacetyl]-7-oxo-2,6-diazabicyclo[3.2.0]-heptane-6-sulphonic acid sodium salt] |  | 2 µg/mL | 73 nM | 
4 | CC(C)n1nnc(CC(=O)N2CC[C@@H]3[C@H]2C(=O)N3S(=O)(=O)[O-])n1.[Na+] [5(l), (1S,5R)-2-[(2-Isopropyl-2H-tetrazol-5-yl)-acetyl]-7-oxo-2,6-diazabicyclo[3.2.0]heptane-6-sulphonic acid sodium salt] |  | 4 µg/mL | 860 nM | 
5 | Cc1nnc(SCC(=O)N2CC[C@@H]3[C@H]2C(=O)N3S(=O)(=O)[O-])s1.[Na+] [5(m), (1S,5R)-2-[[(5-Methyl-1,3,4-thiadiazol-2-yl)thio]acetyl]-7-oxo-2,6-diazabicyclo[3.2.0]heptane-6-sulphonic acid sodium salt] |  | 0.5 µg/mL | 24 nM | 
6 | O=C(COc1ccc(O)nn1)N1CC[C@@H]2[C@H]1C(=O)N2S(=O)(=O)[O-].[Na+] [5(p), (1S,5R)-2-[(6-Hydroxy-pyridazin-3-yloxy)-acetyl]-7-oxo-2,6-diazabicyclo[3.2.0]heptane-6-sulfonic acid sodium salt] |  | 1 µg/mL | 178 nM | 
7 | O=C(CSc1nnnn1-c1ccccc1)N1CC[C@@H]2[C@H]1C(=O)N2S(=O)(=O)O [5(q), (1S,5R)-7-Oxo-2-[(1-phenyl-tetrazol)-5-ylsulfanyl-acetyl]-2,6-diazabicyclo[3.2.0]heptane-6-sulfonic acid sodium salt] | 5 nM | 2 µg/mL |  | 
8 | N[C@@H](C(=O)N1CC[C@@H]2[C@H]1C(=O)N2S(=O)(=O)O)c1ccc(O)cc1 [6(d), (1S,5R)-2-[D-2-(p-Hydroxyphenyl)glycyl]-7-oxo-2,6-diazabicyclo[3.2.0]-heptane-6-sulphonic acid] | 500 nM | 2 µg/mL |  | 
9 | CCN(CC)CC.O=C(/C=C/c1c[nH]c2ccccc12)N1CC[C@@H]2[C@H]1C(=O)N2S(=O)(=O)O [6(f), (1S,5R)-2-[(E)-3-(3-Indolyl)acryloyl]-7-oxo-2,6-diazabicyclo[3.2.0]heptane-6-sulphonic acid triethylamine salt (1:1)] |  | 4 µg/mL |  | 11 nM
10 | N[C@@H](Cc1c[nH]c2ccccc12)C(=O)N1CC[C@@H]2[C@H]1C(=O)N2S(=O)(=O)O [6(h), (1S,5R)-7-Oxo-2-L-tryptophanyl-2,6-diazabicyclo[3.2.0]heptane-6-sulphonic acid] | 6 nM | 1 µg/mL |  | 
11 | O=C(Cc1cccnc1)N1CC[C@@H]2[C@H]1C(=O)N2S(=O)(=O)[O-].[Na+] [6(i), (1S,5R)-7-Oxo-2-(3-pyridylacetyl)-2,6-diazabicyclo[3.2.0]-heptane-6-sulphonic acid sodium salt] |  | 4 µg/mL | 700 nM | 
12 | N[C@@H](C(=O)N1CC[C@@H]2[C@H]1C(=O)N2S(=O)(=O)O)c1cccc(O)c1 [6(p), (1S,5R)-2-[R-2-(m-Hydroxyphenyl)glycyl]-7-oxo-2,6-diazabicyclo[3.2.0]heptane-6-sulphonic acid] | 56 nM | 2 µg/mL |  | 
13 | O=C(/C=C/c1ccc(O)c(O)c1)N1CC[C@@H]2[C@H]1C(=O)N2S(=O)(=O)O [6(u), (1S,5R)-(E)-2-[3-(3,4Dihydroxy)phenyl)acryloyl)]-7-oxo-2,6-diazabicyclo[3.2.0]heptane-6-sulfonic acid sodium salt] | 40 nM | 2 µg/mL |  | 
14 | O=C(CNc1ccc(O)cc1)N1CC[C@@H]2[C@H]1C(=O)N2S(=O)(=O)[O-].[Na+] [6(v), (1S,5R)-2-(4-Hydroxy-phenylaminoacetyl)-7-oxo-2,6-diazabicyclo[3.2.0]heptane-6-sulfonic acid sodium salt] |  | 8 µg/mL | 3.5 nM | 
15 | O=C(/C=C/c1cccs1)N1CC[C@@H]2[C@H]1C(=O)N2S(=O)(=O)O [8(a), (1S,5R)-2-[(E)-3-(2-Thienyl)acryloyl]-7-oxo-2,6-diaza-bicyclo[3.2.0]heptane-6-sulphonic acid] | 75 nM | 4 µg/mL |  | 
16 | O=C(Cn1cnnn1)N1CC[C@@H]2[C@H]1C(=O)N2S(=O)(=O)[O-].[Na+] [8(b), (1S,5R)-7-Oxo-2-(1H-tetrazol-1-ylacetyl)-2,6-diazabicyclo[3.2.0]heptane-6-sulphonic acid sodium salt] |  | 1 µg/mL | 500 nM | 
17 | O=C(/C=C/c1c[nH]cn1)N1CC[C@@H]2[C@H]1C(=O)N2S(=O)(=O)[O-].[Na+] [8(d), (1S,5R)-2-[(E)-3-(4-Imidazolyl)acryloyl]-7-oxo-2,6-diazabicyclo[3.2.0]heptane-6-sulphonic acid sodium salt] |  | 0.5 µg/mL | 34 nM | 
18 | O=C(CCc1ccccc1)N1CC[C@@H]2[C@H]1C(=O)N2S(=O)(=O)[O-].[Na+] [11(b), (1S,5R)-7-Oxo-2-(3-phenyl-propionyl)-2,6-diazabicyclo[3.2.0]heptane-6-sulphonic acid sodium salt] |  | 16 µg/mL | 573 nM | 
19 | O=C(/C=C/c1ccc(OS(=O)(=O)[O-])c(OS(=O)(=O)[O-])c1)N1CC[C@@H]2[C@H]1C(=O)N2S(=O)(=O)[O-].[Na+].[Na+].[Na+] [11(c), (1S,5R)-2-[(E)-3,4-Bis(sulphoxy)cinnamoyl]-7-oxo-2,6-diazabicyclo[3.2.0]heptane-6-sulphonic acid sodium salt] |  | 16 µg/mL | 1 nM | 
20 | O=C1[C@@H]2[C@@H](CCN2S(=O)(=O)Cc2ccccc2)N1S(=O)(=O)[O-].[Na+] [11(d), (1S,5R)-2-(Benzylsulphonyl)-7-oxo-2,6-diazabicyclo [3.2.0]heptane-6-sulphonic acid sodium salt] |  | 4 µg/mL | 142 nM | 
21 | Nc1ccc(/C=C/C(=O)N2CC[C@@H]3[C@H]2C(=O)N3S(=O)(=O)O)cc1 [12(a), (1S,5R)-2-[(E)-p-Aminocinnamoyl]-7-oxo-2,6-diazabicyclo[3.2.0]heptane-6-sulphonic acid] | 105 nM | 4 µg/mL |  | 
22 | O=C(CSc1nc[nH]n1)N1CC[C@@H]2[C@H]1C(=O)N2S(=O)(=O)O [12(b), (1S,5R)-7-Oxo-2-(1,2,4-triazol-3-yl-thioacetyl)-2,6-diazabicyclo[3.2.0]heptan-6-sulphonic acid] |  | 2 µg/mL |  | 115 nM
23 | COc1cc(CNC(=O)N2CC[C@@H]3[C@H]2C(=O)N3S(=O)(=O)[O-])on1.[Na+] [17(aa), (1S,5R)-2-[3-Methoxy-isoxazol-5-ylmethylcarbamoyl]-7-oxo-2,6-diazabicyclo[3.2.0]heptane-6-sulfonic acid sodium salt] |  | 0.5 µg/mL | 75 nM | 
24 | O=C(NCc1ccc(O)cc1)N1CC[C@@H]2[C@H]1C(=O)N2S(=O)(=O)[O-].[Na+] [17(ab), (1S,5R)-2-[4-Hydroxy-benzylcarbamoyl]-7-oxo-2,6-diazabicyclo[3.2.0]heptane-6-sulfonic acid sodium salt] |  | 1 µg/mL | 194 nM | 
25 | O=C(NC1CCCC1)N1CC[C@@H]2[C@H]1C(=O)N2S(=O)(=O)[O-].[Na+] [17(ac), (1S,5R)-2-Cyclopentylcarbamoyl-7-oxo-2,6-diazabicyclo[3.2.0]heptane-6-sulfonic acid sodium salt] |  | 1 µg/mL | 70 nM | 
26 | O=C1OCCN1NC(=O)N1CC[C@@H]2[C@H]1C(=O)N2S(=O)(=O)[O-].[Na+] [17(ad), (1S,5R)-7-Oxo-2-[2-oxo-oxazolidin-3-ylcarbamoyl]-2,6-diazabicyclo[3.2.0]heptane-6-sulfonic acid sodium salt] |  | 2 µg/mL | 75 nM | 
